Measurements: US7604990B2, “Methods of regulating differentiation in stem cells” (ES Cell International Pte Ltd., priority 2002, dated 2009)

Experiments:
Format in all cases: cell-based, human
[1] = system: ERKs (Erk1 and Erk2) in hES cells; assay: ERK phosphorylation Western blot in hES cells (Example 1); conditions: hES cells, 5 min; S1P 10 μM, LPA 50 M, PDGF 20 ng/ml
Experimental: RT-PCR for LPL receptors (A, B), PDGFR-[…] (alpha) and PDGFR-[…] (beta) (C), SPK-1 and SPK-2 (D), with (+) or without (−) RT. Immunostaining of hES cells with Hoechst 33342 (E, H), PDGFR-[…] (F) or PDGFR-[…] (I) and GCTM-2 (G, J) antibodies. S1P, LPA and PDGF stimulate ERKs phosphorylation in hES cells. (K) Western blots experiment were performed using protein lysate from hES cells. Cells were pre-treated or not with U0126 (30 μM, 1 hr) and incubated for 5 min in the absence (C, control) or presence of S1P (S, 10 μM), LPA (L, […]) or PDGF (P, 20 ng/ml). The phosphorylation of Erk1 and Erk2 (P-Erk1 and P-Erk2) was assessed by immunoblotting with a polyclonal anti-active MAP kinase as described in Materials and Methods. After a stripping procedure, the same blots were reprobed with a monoclonal anti-MAP kinase, allowed the detection of Erk1 and Erk2.
hES-3 cells plated without MEF for 24 hrs were depleted of serum for a further 18 hrs. Cells pre-treated or not with U0126 (Sigma, 30 μM, 1 hr), were incubated in the presence of the different agents for 5 min and were lysed by removal of the supernatants and addition of a reducing loading buffer containing 1 mM sodium orthovanadate (Sigma). Protein lysates (approx. 80 μg) were separated by SDS-polyacrylamide gel electrophoresis (10% polyacrylamide, w/v), transferred to nitrocellulose (Hybond-nitrocellulose, Amersham) and immunoblotting was carried out using rabbit polyclonal anti-active mitogen-activated protein (MAPK) antibodies raised against a dually phosphorylated MAPK peptide (Promega, Madison, Wis., USA). Peroxidase-coupled secondary antibody (Dako) was detected by exposure of autoradiographic films in the presence of a chemiluminescent detection reagent (ECL, Amersham). Stripping of antibodies was achieved and membranes were then reprobed with rabbit polyclonal anti-ERK1/2 antibodies (Promega), and then with peroxidase-coupled secondary antibodies (Dako). Membranes probed with either rabbit polyclonal anti-active p38 (Promega) or rabbit polyclonal anti-active JNK (Promega) antibodies were also performed, using the same procedure as described above.

[2] = system: hES cells; assay: Spontaneous differentiation of hES colonies on MEF in serum-free medium, morphology (Example 1); conditions: 8 days serum-free on MEF; S1P 10 μM, PDGF 20 ng/ml, LPA up to 50 μM
Experimental: (A) hES cells grown with MEF, before the depletion of serum from the medium. (B, C, D, E) hES cells grown without serum after 8 days, in the absence (B) or in the presence of S1P (10 μM) (C), PDGF (20 ng/ml) (D), S1P (10 μM) plus PDGF (20 ng/ml) (E). (F) hES cells grown without serum, in the presence or in the absence (control) of S1P (10 μM), PDGF (20 ng/ml), S1P (10 μM) plus PDGF (20 ng/ml). In A-E, data are representative of at least 3 independent experiments. In F, data expressed as percentages of alkaline phosphatase activity in absence of serum for eight days (% of control), are the means±SEM of at least 2 independent experiments, each run in triplicate.
hES-3 cells were cultured as previously described^1. The serum-free culture medium consisted of DMEM (without sodium pyruvate, glucose 4500 mg/l, Invitrogen, Mount Waverley, VIC, Australia) supplemented with insulin/transferrin/selenium 1%, β-mercaptoethanol 0.1 mM, NEAA 1%, glutamine 2 mM, Hepes 25 mM, penicillin 50 U/ml and streptomycin […] (all from Invitrogen). Medium was changed every 2 days and cells were passaged every week. S1P and dihydro-S1P were obtained from Biomol (Plymouth Meeting, Pa., USA) and were dissolved in methanol. LPA was obtained from Sigma (Castle Hill, NSW, Australia) and was dissolved in ethanol. Extemporaneous dilutions of all lipids were made in water containing 0.1% fatty acid-free bovine serum albumin (BSA) (Sigma). Human PDGF-AB, PDGF-AA, PDGF-BB were from PreproTech Inc. (Rocky Hill, N.J., USA).

[3] = system: hES cells; assay: Spontaneous differentiation of hES colonies on MEF in serum-free medium, morphology (Example 2); conditions: 2 weeks serum-free on MEF; S1P 10 μM, PDGF-AB 20 ng/ml, LPA up to 50 μM
Experimental: hES-3 cells were cultured as previously described^1. The serum-free culture medium consisted of DMEM (without sodium pyruvate, glucose 4500 mg/l, Invitrogen, Mount Waverley, VIC, Australia) supplemented with insulin/transferrin/selenium 1%, β-mercaptoethanol 0.1 mM, NEAA 1%, glutamine 2 mM, Hepes 25 mM, penicillin 50 U/ml and streptomycin […] (all from Invitrogen). Media was changed every 2 days and cells were passaged every week S1P and dihydro-S1P were obtained from Biomol (Plymouth Meeting, Pa., USA). LPA was obtained from Sigma (Castle Hill, NSW, Australia). Extemporaneous dilutions of all lipids were made in water containing 0.1% fatty acid-free bovine serum albumin (BSA) (Sigma). […] Human PDGF-AB, PDGF-AA, PDGF-BB were from Prepro Tech Inc. (Rocky Hill, N.J., USA) and were used at 20 ng/ml.

[4] = system: hES cells; assay: ELISA-based GCTM-2 quantification in hES cells (Example 2); conditions: treated 2 weeks, serum-free; n=3
Experimental: hES-3 cells were cultured as previously described^1. The serum-free culture medium consisted of DMEM (without sodium pyruvate, glucose 4500 mg/l, Invitrogen, Mount Waverley, VIC, Australia) supplemented with insulin/transferrin/selenium 1%, β-mercaptoethanol 0.1 mM, NEAA 1%, glutamine 2 mM, Hepes 25 mM, penicillin 50 U/ml and streptomycin […] (all from Invitrogen). Media was changed every 2 days and cells were passaged every week S1P and dihydro-S1P were obtained from Biomol (Plymouth Meeting, Pa., USA). LPA was obtained from Sigma (Castle Hill, NSW, Australia). Extemporaneous dilutions of all lipids were made in water containing 0.1% fatty acid-free bovine serum albumin (BSA) (Sigma). S1P and dihydro-S1P were used at […]. Human PDGF-AB, PDGF-AA, PDGF-BB were from Prepro Tech Inc. (Rocky Hill, N.J., USA) and were used at 20 ng/ml.
Cells were fixed in 100% ethanol and immunostained with GCTM-2 followed by alkaline phosphatase-coupled secondary antibodies (Dako). Alkaline phosphatase activity was detected by adding a solution of 4-nitrophenyl phosphate (Roche), and the concentration of the reaction product was determined by reading the optical density (OD) at 405 nm. In order to validate the technique as an accurate indicator of the proportion of GCTM-2 positive cells, standard curves were carried out with the embryonal carcinoma cell line GCT27C4, known to express GCTM-2^20.

Compound | phosphorylation of ERKs [1] | colony growth/morphology (spontaneous differentiation) [2] | size or morphology of hES cell colonies (spontaneous differentiation) [3] | more GCTM2+ than the controls [4] [%]
CCCCCCCCCCCCC/C=C/[C@@H](O)[C@@H](N)COP(=O)(O)O [S1P, Sphingosine-1-phosphate] | stimulated the phosphorylation of ERKs | flatter and less differentiated | flatter and less differentiated | 18.0±17.0
PDGF | stimulated the phosphorylation of ERKs | flatter and less differentiated | flatter and less differentiated | 50.3±18.4
